Test results: US20250066290A1, “DHODH INHIBITORS CONTAINING A CARBOXYLIC ACID BIOISOSTERE” (IMMUNIC AG, priority 2021, published 2025)
pEC50, pIC50: −log10 of the molar value. Where two headings read alike, the source gives them in different places.

How the values were obtained:
[1] = target: N-terminally truncated recombinant hDHODH enzyme (Homo sapiens, UniProt Q02127); assay: biochemical; type: biochemical
Protocol: Briefly, the hDHODH concentration was adjusted in a way that an average slope of approximately 0.2 AU/min served as the positive control (e.g. without inhibitor). The standard assay mixture contained 60 μM 2,6-dichloroindophenol, 50 μM decylubiquinone and 100 μM dihydroorotate. The hDHODH enzyme with or without at least six different concentrations of the compounds was added and measurements were performed in 50 mM TrisHCl, 150 mM KCl and 0.1% Triton X-100 at pH 8.0 and at 30° C. The reaction was started by adding dihydroorotate and measuring the absorption at 600 nm for 2 min. For the determination of the IC50 values, each data point was recorded in triplicate. […].

SARS-CoV-2 = SARS-CoV-2 viral replication (YFP) assay; type: cell-based; settings: Severe acute respiratory syndrome coronavirus 2, read-out: EC50 range
[2] = Mouse pharmacokinetics, female, deuteration matched pair analysis; type: in vivo, mice (C57BL/6J); settings: for AUC(0-t) / Cmax / half-life: C57BL/6J, mouse, in vivo; for AUC(0-t) / Cmax / F: female mice; for AUC(0-t): 0 to 8 h; for Cmax: 5 mg/kg oral, 1 mg/kg intravenous cassette; for F: bioavailability; for half-life: female
Protocol: In another matched pair analysis the benefit of deuteration of the N-methoxyacetamide moiety was tested: the pharmacokinetic properties of the compounds were evaluated in 3 female mice (C57BL/6J, 8 week old) after oral or intravenous cassette dosing to assess the oral bioavailability. Dose was 5 mg/kg (oral) and 1 mg/kg (intravenous), application volume was 5 mL/kg (oral) and 2 mL/kg (intravenous), vehicle was 5% solutol, 95% NaCl solution (at 0.9% saline concentration) for oral and 5% solutol, 5% ethanol, 90% NaCl solution (at 0.9% saline concentration) for intravenous application. At each designated time point (0.25, 0.5, 1, 2, 4 and 8 h after dosing for oral; 0.083, 0.25, 0.5, 1, 4 and 8 h after dosing for intravenous), 20 μL whole blood were collected from the tail vein into Li-heparin tubes, frozen on dry ice within 1-2 minutes of sampling and stored at −20° C. until processed for LC-MS analysis.

[3] = Rat pharmacokinetics, oral cassette dosing; parameters: species or system Sprague Dawley rats; settings: Sprague Dawley, in vivo; for AUC(0-t) / Cmax / AUC(0-inf): female rats, oral cassette; for AUC(0-t): 0 to 8 h; for Cmax: blood; for AUC(0-inf): calculated to infinity; for half-life: female, po
Protocol: The pharmacokinetics of compounds of the present invention was evaluated in 3 female Sprague Dawley rats (8 week old) after oral cassette dosing (vehicle: 5% solutol/95% NaCl solution (at 0.9% saline concentration; application volume: 5 mL/kg) to asses the exposure of the test items. At each designated time point (0.25, 0.5, 1, 2, 4 and 8 h after dosing), 20 μL blood were collected from the tail vein into Li-heparin tubes, cooled on ice and stored at −20° C. until processed for LC-MS analysis. The obtained data is as follows: […]

[4] = Metabolic stability in rat liver microsomes; settings: SD
Text: (§1) The metabolism was monitored by HPLC-MS/MS. Verapamil served as positive control.

[5] = Metabolic stability in human liver microsomes
Text: as §1

[6] = human DHODH assay, read-out: IC50 range

Sequence of N-terminally truncated recombinant hDHODH enzyme (Q02127 whole entry, looked up, the tested form may be a part): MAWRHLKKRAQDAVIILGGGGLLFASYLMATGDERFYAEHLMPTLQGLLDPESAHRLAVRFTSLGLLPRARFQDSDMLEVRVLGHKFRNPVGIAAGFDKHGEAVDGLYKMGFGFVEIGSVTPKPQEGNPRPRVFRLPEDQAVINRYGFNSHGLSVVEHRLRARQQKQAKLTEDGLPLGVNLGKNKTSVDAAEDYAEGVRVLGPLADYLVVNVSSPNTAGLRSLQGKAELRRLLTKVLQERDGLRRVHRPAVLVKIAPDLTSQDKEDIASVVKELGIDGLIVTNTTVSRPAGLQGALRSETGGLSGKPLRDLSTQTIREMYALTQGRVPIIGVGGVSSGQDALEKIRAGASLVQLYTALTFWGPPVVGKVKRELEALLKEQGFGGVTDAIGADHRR

Work on [2H]C([2H])([2H])ONC(=O)c1sccc1C(=O)Nc1c(F)c(F)c(-c2cccc(OC([2H])([2H])[2H])c2)c(F)c1F [9/6] yielded a pIC50 [1, 6] greater than 7.00, a pEC50 (SARS-CoV-2) greater than 6.00 and an AUC(0-t) [2] of 25 µg·h/mL. It also gave a Cmax [2] of 6.7 µg/mL, an F [2] of 76% and a half-life [2] of 2.5 h.
[2H]C([2H])([2H])Oc1cccc(-c2c(F)c(F)c(NC(=O)C3=C(C(=O)NOC)COC3)c(F)c2F)c1 [Example 5/4] gave a pIC50 [1, 6] greater than 7.00, an AUC(0-t) [3] of 125 µM·h and a Cmax [3] of 21 µM. For the same molecule, the AUC(0-inf) [3] was 271 µM·h, the half-life [3] was 7.9 h and the pEC50 (SARS-CoV-2) was greater than 6.00. For the same molecule, the AUC(0-t) [2] was 106 µg·h/mL, the Cmax [2] was 18 µg/mL and the F [2] was 39%. It also gave a half-life [2] greater than 8 h.
In the case of [2H]C([2H])([2H])Oc1cccc(-c2c(F)c(F)c(NC(=O)C3=C(C(=O)NOC)CSC3)c(F)c2F)c1 [Example 6/1], the pIC50 [1, 6] was greater than 7.00 and the pEC50 (SARS-CoV-2) was greater than 6.00.
[2H]C([2H])([2H])ONC(=O)C1=C(C(=O)Nc2c(F)c(F)c(-c3cccc(OC([2H])([2H])[2H])c3)c(F)c2F)COC1 [Example 5/5] gave a pIC50 [1, 6] greater than 7.00, an AUC(0-t) [3] of 113 µM·h and a Cmax [3] of 19 µM. It also gave an AUC(0-inf) [3] of 252 µM·h, a half-life [3] of 8.4 h and a pEC50 (SARS-CoV-2) greater than 6.00. For the same molecule, the AUC(0-t) [2] was 165 µg·h/mL, the Cmax [2] was 70 µg/mL and the F [2] was 56%. It also gave a half-life [2] greater than 8 h.
[2H]C([2H])([2H])Oc1cccc(-c2cc(F)c(NC(=O)C3=C(C(=O)NS(C)(=N)=O)CCC3)c(F)c2)c1 (stereo not shown) [1/4] gave a pIC50 [1, 6] greater than 7.00 and a pEC50 (SARS-CoV-2) of less than 4.30.
[2H]C([2H])([2H])Oc1cccc(-c2c(F)c(F)c(NC(=O)c3ccsc3C(=O)NOCCO)c(F)c2F)c1 [9/7] showed a pIC50 [1, 6] greater than 7.00 and a pEC50 (SARS-CoV-2) greater than 6.00.
Work on [2H]C([2H])([2H])Oc1cccc(-c2cc(F)c(NC(=O)C3=C(C(=O)NOCC)CCC3)c(F)c2)c1 [4/9] yielded a pIC50 [1] of 5.00 to 6.00 and a pEC50 (SARS-CoV-2) greater than 5.00.
Work on [2H]C([2H])([2H])Oc1ccccc1-c1c(F)c(F)c(NC(=O)C2=C(C(=O)NOCCO)CSC2)c(F)c1F [6/3] yielded a pIC50 [1, 6] greater than 7.00 and a pEC50 (SARS-CoV-2) greater than 6.00.
In the case of [2H]C([2H])([2H])Oc1cccc(-c2c(F)c(F)c(NC(=O)C3=C(C(=O)NS(C)(=O)=O)CCC3)c(F)c2F)c1 [Example 1/7], the pIC50 [1, 6] was greater than 7.00, the microsomal CLint ([4]; female) was 30.5 µL/min/mg and the microsomal CLint ([4]; male) was 20 µL/min/mg. It also gave a microsomal CLint ([5]; female) of 4.01 µL/min/mg, a microsomal CLint ([5]; male) of 1.32 µL/min/mg and a pEC50 (SARS-CoV-2) greater than 5.00.
Molecule [2H]C([2H])([2H])Oc1cccc(-c2c(F)cc(NC(=O)c3ccsc3C(=O)NOC)cc2F)c1 [9/3] has a pIC50 [1, 6] greater than 7.00 and a pEC50 (SARS-CoV-2) greater than 6.00.
[2H]C([2H])([2H])Oc1cccc(-c2c(F)c(F)c(NC(=O)c3cc(C)sc3C(=O)NOC)c(F)c2F)c1 [Example 17-1, N2-Methoxy-5-methyl-N3-(2,3,5,6-tetrafluoro-3′-(methoxy-d3)-[1,1′-biphenyl]-4-yl)thiophene-2,3-dicarboxamide] gave a pIC50 [1] greater than 7.00 and a pEC50 (SARS-CoV-2) greater than 6.00.
For [2H]C([2H])([2H])Oc1cccc(-c2c(F)c(F)c(NC(=O)c3sc(C)cc3C(=O)NOC)c(F)c2F)c1 [Example 17-2, N3-methoxy-5-methyl-N2-(2,3,5,6-tetrafluoro-3′-(methoxy-d3)-[1,1′-biphenyl]-4-yl)thiophene-2,3-dicarboxamide], the pIC50 [1, 6] was greater than 7.00 and the pEC50 (SARS-CoV-2) was greater than 6.00.
[2H]C([2H])([2H])Oc1cccc(-c2cc(F)c(NC(=O)C3=C(C(=O)NOCCO)CCC3)c(F)c2)c1 [Example 4/1] showed a pIC50 [1] of 5.00 to 6.00 and a pEC50 (SARS-CoV-2) greater than 5.00.
CONC(=O)C1=C(C(=O)Nc2c(F)c(F)c(-c3cccc(OC)c3)c(F)c2F)COC1 [Example 5/9] gave a pIC50 [1, 6] greater than 7.00, an AUC(0-t) [3] of 91 µM·h and a Cmax [3] of 17 µM. For the same molecule, the AUC(0-inf) [3] was 185 µM·h and the half-life [3] was 6.6 h.
Molecule [2H]C([2H])([2H])Oc1cccc(-c2cc(F)c(NC(=O)C3=C(C(=O)NS(N)(=O)=O)COC3)c(F)c2)c1 [Example 2-1, N^3-(3,5-Difluoro-3′-(methoxy-d3)-[1,1′-biphenyl]-4-yl)-N^4-sulfamoyl-2,5-dihydrofuran-3,4-di-carboxamide] has a pIC50 [1] of 6.00 to 7.00 and a pEC50 (SARS-CoV-2) of 4.60 to 5.00.
[2H]C([2H])([2H])Oc1cccc(-c2c(F)c(F)c(NC(=O)C3=C(C(=O)NOCCO)CCC3)c(F)c2F)c1 [4/23] showed a pIC50 [1, 6] greater than 7.00 and a pEC50 (SARS-CoV-2) greater than 6.00.
[2H]C([2H])([2H])Oc1cccc(-c2c(F)c(F)c(NC(=O)C3=C(c4nn[nH]n4)COC3)c(F)c2F)c1 [Example 3/1] showed a pIC50 [1] of 5.00 to 6.00 and a pEC50 (SARS-CoV-2) of 4.30 to 4.60.
